Data from PubChem BioAssay (NCI).
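Exposure lasted 48 hours, with cells grown in 96-well plates and compounds tested at five concentrations. The concentration for full growth arrest is given as TGI.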

Tests used:
Test in all cases: NCI anticancer screen, dose series, 48 h
[1] = test system: A549 NSCLC
[2] = test system: IGROV1 ovarian
[3] = test system: SN12C renal
[4] = test system: MDA-MB-435
[5] = test system: SNB-19 CNS
[6] = test system: OVCAR-4 ovarian
[7] = test system: MCF7 breast
[8] = test system: HOP-92 NSCLC
[9] = test system: UACC-62 melanoma
[10] = test system: HCC-2998 colon

COC(=O)c1ccc(-c2nc(C#N)c(N)o2)cc1 was tested, and the TGI [1] was over 100 µM, the TGI [2] was over 100 µM and the TGI [3] was over 100 µM. The TGI [4] was over 100 µM, the TGI [5] was over 100 µM and the TGI [6] was over 100 µM. It also gave a TGI [7] of over 100 µM.
Compound O=S1(=O)NNC(=NCc2ccc(Cl)cc2)c2ccccc21 has a TGI [1] of over 100 µM, a TGI [2] of over 100 µM and a TGI [3] of over 100 µM. It also gave a TGI [5] of over 100 µM, a TGI [6] of over 100 µM and a TGI [8] of over 100 µM. The TGI [9] was over 100 µM and the TGI [10] was over 100 µM.
Compound CN=C(Nn1cnnc1)OC has a TGI [1] of over 100 µM, a TGI [2] of over 100 µM and a TGI [4] of over 100 µM. For the same compound, the TGI [5] was over 100 µM, the TGI [6] was over 100 µM and the TGI [8] was over 100 µM. The TGI [7] was over 100 µM, the TGI [9] was over 100 µM and the TGI [10] was over 100 µM.
CN1CCn2c(Br)ccc2C1=O showed a TGI [1] of over 100 µM, a TGI [2] of over 100 µM and a TGI [3] of over 100 µM. The TGI [5] was over 100 µM, the TGI [6] was over 100 µM and the TGI [9] was over 100 µM. The TGI [10] was over 100 µM.
With COC(=O)C(/C(=N/NC(=O)c1ccncc1)C(=O)Nc1ccccc1OC)c1nc2ccc(Cl)cc2[nH]c1=O (stereo not drawn) the TGI [1] was over 100 µM, the TGI [2] was over 100 µM and the TGI [3] was over 100 µM. The TGI [4] was over 100 µM, the TGI [6] was over 100 µM and the TGI [8] was over 100 µM. For the same compound, the TGI [7] was over 100 µM and the TGI [9] was over 100 µM.
For O=C(c1ccccc1)c1c(C(F)(F)F)n([O-])c2ccccc2[n+]1=O, the TGI [2] was 0.489 µM, the TGI [5] was 3.23 µM and the TGI [6] was 1.11 µM. For the same compound, the TGI [8] was 1.2 µM, the TGI [7] was 5.24 µM and the TGI [9] was 3.52 µM.
With c1ccc(CCN2CCCCCC2)nc1 the TGI [1] was over 100 µM, the TGI [2] was over 100 µM and the TGI [3] was over 100 µM. It also gave a TGI [4] of over 100 µM, a TGI [5] of over 100 µM and a TGI [6] of over 100 µM. The TGI [8] was over 100 µM, the TGI [7] was over 100 µM and the TGI [9] was over 100 µM.
CCOC(=O)c1nc2c3c(ncn2n1)Oc1c(c(-c2ccccc2)nn1-c1ccccc1)C3c1ccc(Cl)cc1 (stereo not drawn) was tested, and the TGI [1] was over 100 µM, the TGI [3] was over 100 µM and the TGI [4] was over 100 µM. For the same compound, the TGI [5] was over 100 µM, the TGI [6] was over 100 µM and the TGI [8] was over 100 µM. It also gave a TGI [7] of over 100 µM, a TGI [9] of over 100 µM and a TGI [10] of over 100 µM.
Compound CCCCc1c2c(nc3c1CCc1cc4c(nc1-3)-c1nc3c(c(CCCC)c1CC4)CCC/C3=C\c1ccccc1)/C(=C/c1ccccc1)CCC2 has a TGI [1] of over 100 µM, a TGI [2] of over 100 µM and a TGI [3] of over 100 µM. For the same compound, the TGI [5] was over 100 µM, the TGI [8] was over 100 µM and the TGI [9] was over 100 µM. The TGI [10] was over 100 µM.
In the case of O=C(CC(O)(C(F)(F)F)C(F)(F)F)C(CCCl)C(O)(C(F)(F)F)C(F)(F)F (stereo not drawn), the TGI [1] is reported as over 100 µM, the TGI [2] is reported as over 100 µM and the TGI [3] is reported as 67 µM. For the same compound, the TGI [4] was over 100 µM, the TGI [5] was over 100 µM and the TGI [6] was over 100 µM. For the same compound, the TGI [7] was over 100 µM, the TGI [9] was over 100 µM and the TGI [10] was over 100 µM.
In the case of N#Cc1c(Nc2ccc(F)cc2)[n+]([O-])c2ccc(Cl)cc2[n+]1[O-], the TGI [1] is reported as 35.9 µM, the TGI [2] is reported as 4.02 µM and the TGI [3] is reported as 13.4 µM. The TGI [4] was over 100 µM, the TGI [5] was over 100 µM and the TGI [6] was 5.71 µM. It also gave a TGI [8] of 5.16 µM, a TGI [7] of 6.1 µM and a TGI [9] of 17.2 µM.
For COc1cc2cc(C(=O)N3CC(CCl)c4c3cc(N)c3ccccc43)[nH]c2cc1OCCN(C)C (stereo not drawn), the TGI [1] was 6 µM, the TGI [2] was 0.00522 µM and the TGI [3] was 0.5 µM. For the same compound, the TGI [4] was under 0.005 µM, the TGI [8] was 0.01 µM and the TGI [7] was 6.52 µM. For the same compound, the TGI [9] was 0.00871 µM and the TGI [10] was 0.535 µM.
Compound COc1cc(C2C3=C(CCC3=O)Oc3cc4c(cc32)OCO4)cc(OC)c1OC (stereo not drawn) has a TGI [1] of over 100 µM, a TGI [2] of over 100 µM and a TGI [3] of over 100 µM. The TGI [5] was over 100 µM, the TGI [6] was over 100 µM and the TGI [8] was 6.47 µM. For the same compound, the TGI [9] was over 100 µM.
